Patent US20240158446A1, “CYCLIC COMPOUND HAVING SELECTIVE INHIBITORY ACTION ON KRAS OVER HRAS AND NRAS” (CHUGAI SEIYAKU KABUSHIKI KAISHA, priority 2021, published 2024)

How the values were obtained:
[1] = target: GDP-bound KRAS wild-type protein (Homo sapiens, UniProt P01116); experiment: Binding to KRAS by surface plasmon resonance (SPR), Single Cycle Kinetics; details: SPR, Single Cycle Kinetics, 1:1 binding model; GDP-bound KRAS wild-type protein; read-out: KRAS KD
[2] = target: GDP-bound NRAS wild-type protein (Homo sapiens, UniProt P01111); experiment: Binding to NRAS by surface plasmon resonance (SPR), Single Cycle Kinetics; details: SPR; GDP-bound NRAS wild-type protein vs GDP-bound KRAS wild-type protein; KD ratio class
[3] = target: GDP-bound HRAS wild-type protein (Homo sapiens, UniProt P01112); experiment: Binding to HRAS by surface plasmon resonance (SPR), Single Cycle Kinetics; details: SPR; GDP-bound HRAS wild-type protein vs GDP-bound KRAS wild-type protein; KD ratio class
[4] = test system: human lung cancer strain NCI-H441;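 further: cell proliferation inhibition after four days measured by CellTiter-Glo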

Sequence of GDP-bound NRAS wild-type protein (P01111 whole entry): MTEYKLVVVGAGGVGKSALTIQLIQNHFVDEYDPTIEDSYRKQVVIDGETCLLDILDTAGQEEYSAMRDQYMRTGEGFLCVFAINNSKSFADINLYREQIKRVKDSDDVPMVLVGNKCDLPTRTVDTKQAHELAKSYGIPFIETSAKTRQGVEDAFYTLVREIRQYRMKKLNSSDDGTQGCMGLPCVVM
Sequence of GDP-bound KRAS wild-type protein (P01116 whole entry): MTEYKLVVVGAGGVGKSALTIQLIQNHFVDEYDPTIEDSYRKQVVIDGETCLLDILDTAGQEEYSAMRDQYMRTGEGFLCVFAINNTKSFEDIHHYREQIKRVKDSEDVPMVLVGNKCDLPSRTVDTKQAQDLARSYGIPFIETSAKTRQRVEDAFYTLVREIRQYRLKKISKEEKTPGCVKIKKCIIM
Sequence of GDP-bound HRAS wild-type protein (P01112 whole entry): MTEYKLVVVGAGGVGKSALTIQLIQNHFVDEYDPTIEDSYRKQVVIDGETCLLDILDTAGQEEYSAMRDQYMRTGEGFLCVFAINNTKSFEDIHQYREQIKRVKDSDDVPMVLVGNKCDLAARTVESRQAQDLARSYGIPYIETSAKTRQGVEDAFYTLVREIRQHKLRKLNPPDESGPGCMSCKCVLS

Row | Structure (SMILES) | Kd [1] [nM] | NRAS/KRAS (ratio of KD value for NRAS to KD value for KRAS) [2] | HRAS/KRAS (ratio of KD value for HRAS to KD value for KRAS) [3] | IC50 [4] [nM]
1 | CC[C@H](C)[C@@H]1NC(=O)[C@H](CC(C)C)N(C)C(=O)C[C@@H](C(=O)N(C)C)N(C)C(=O)[C@H](C2CCCC2)N(C)C(=O)C2(CCC2)NC(=O)[C@@H]2CCCN2C(=O)[C@H](CCc2cc(F)c(C(F)(F)F)c(F)c2)NC(=O)CN(C)C(=O)[C@H](Cc2ccc(C(F)(F)F)cc2)N2CC/C=C\C[C@@H](C2=O)N(C)C(=O)CN(C)C1=O [PP1272, (2S,8S,14S,20S,23S,27S,30S,36S,38Z)-20-cyclopentyl-8-[2-[3,5-difluoro-4-(trifluoromethyl)phenyl]ethyl]-27-isobutyl-N,N,4,19,22,26,32,35-octamethyl-30-[(1S)-1-methylpropyl]-3,6,9,15,18,21,25,28,31,34,42-undecaoxo-2-[[4-(trifluoromethyl)phenyl]methyl]spiro[1,4,7,10,16,19,22,26,29,32,35-undecazatricyclo[34.5.1.0^10,14]dotetracont-38-ene-17,1′-cyclobutane]-23-carboxamide] | 0.11 | A (a compound having 10 or more and less than 20 is denoted as A) | A (a compound having 10 or more and less than 20 is denoted as A) | 24
2 | CC[C@H](C)[C@@H]1NC(=O)[C@H](CC)N(C)C(=O)C[C@@H](C(=O)N(C)C)N(C)C(=O)[C@H](C2CCCC2)N(C)C(=O)C2(CCCC2)NC(=O)[C@@H]2CCCN2C(=O)[C@H](CCc2cc(F)c(C(F)(F)F)c(F)c2)NC(=O)CN(C)C(=O)[C@H](Cc2ccc(C(F)(F)F)cc2)N2CC/C=C\C[C@@H](C2=O)N(C)C(=O)CN(C)C1=O [PP1273, (2S,8S,14S,20S,23S,27S,30S,36S,38Z)-20-cyclopentyl-8-[2-[3,5-difluoro-4-(trifluoromethyl)phenyl]ethyl]-27-ethyl-N,N,4,19,22,26,32,35-octamethyl-30-[(1S)-1-methylpropyl]-3,6,9,15,18,21,25,28,31,34,42-undecaoxo-2-[[4-(trifluoromethyl)phenyl]methyl]spiro[1,4,7,10,16,19,22,26,29,32,35-undecazatricyclo[34.5.1.0^10,14]dotetracont-38-ene-17,1′-cyclopentane]-23-carboxamide] | 0.12 | A (a compound having 10 or more and less than 20 is denoted as A) | B (a compound having 3 or more and less than 10 is denoted as B) | 16.5
3 | CCO[C@@H]1C[C@H]2C(=O)NC3(CC(F)(F)C3)C(=O)N(C)[C@@H](C3CCCC3)C(=O)N(C)[C@H](C(=O)N(C)C)CC(=O)N(C)[C@@H](CC)C(=O)N[C@@H]([C@@H](C)CC)C(=O)N(C)CC(=O)N(C)[C@H]3C/C=C\CCN(C3=O)[C@@H](Cc3ccc(C(F)(F)F)cc3)C(=O)N(C)CC(=O)N[C@@H](CCc3cc(F)c(C(F)(F)F)c(F)c3)C(=O)N2C1 [PP1274, (2S,8S,12R,14S,20S,23S,27S,30S,36S,38Z)-20-cyclopentyl-8-[2-[3,5-difluoro-4-(trifluoromethyl)phenyl]ethyl]-12-ethoxy-27-ethyl-1′,1′-difluoro-N,N,4,19,22,26,32,35-octamethyl-30-[(1S)-1-methylpropyl]-3,6,9,15,18,21,25,28,31,34,42-undecaoxo-2-[[4-(trifluoromethyl)phenyl]methyl]spiro[1,4,7,10,16,19,22,26,29,32,35-undecazatricyclo[34.5.1.0^10,14]dotetracont-38-ene-17,3′-cyclobutane]-23-carboxamide] | 0.032 | A (a compound having 10 or more and less than 20 is denoted as A) | A (a compound having 10 or more and less than 20 is denoted as A) | 7.5
4 | CCO[C@@H]1C[C@H]2C(=O)NC3(CC(C)(C)C3)C(=O)N(C)[C@@H](C3CCCC3)C(=O)N(C)[C@H](C(=O)N(C)C)CC(=O)N(C)[C@@H](CC)C(=O)N[C@@H]([C@@H](C)CC)C(=O)N(C)CC(=O)N(C)[C@H]3C/C=C\CCN(C3=O)[C@@H](Cc3ccc(C(F)(F)F)cc3)C(=O)N(C)CC(=O)N[C@@H](CCc3cc(F)c(C(F)(F)F)c(F)c3)C(=O)N2C1 [PP1275, (2S,8S,12R,14S,20S,23S,27S,30S,36S,38Z)-20-cyclopentyl-8-[2-[3,5-difluoro-4-(trifluoromethyl)phenyl]ethyl]-12-ethoxy-27-ethyl-N,N,3′,3′,4,19,22,26,32,35-decamethyl-30-[(1S)-1-methylpropyl]-3,6,9,15,18,21,25,28,31,34,42-undecaoxo-2-[[4-(trifluoromethyl)phenyl]methyl]spiro[1,4,7,10,16,19,22,26,29,32,35-undecazatricyclo[34.5.1.0^10,14]dotetracont-38-ene-17,1′-cyclobutane]-23-carboxamide] | 0.047 | A (a compound having 10 or more and less than 20 is denoted as A) | A (a compound having 10 or more and less than 20 is denoted as A) | 4.9
5 | CCO[C@@H]1C[C@H]2C(=O)NC3(CCCC3)C(=O)N(C)[C@@H](C3CCCC3)C(=O)N(C)[C@H](C(=O)N(C)C)CC(=O)N(C)[C@@H](CC)C(=O)N[C@@H]([C@@H](C)CC)C(=O)N(C)CC(=O)N(C)[C@H]3C/C=C\CCN(C3=O)[C@@H](Cc3ccc(C(F)(F)F)cc3)C(=O)N(C)CC(=O)N[C@@H](CCc3cc(F)c(C(F)(F)F)c(F)c3)C(=O)N2C1 [PP1276, (2S,8S,12R,14S,20S,23S,27S,30S,36S,38Z)-20-cyclopentyl-8-[2-[3,5-difluoro-4-(trifluoromethyl)phenyl]ethyl]-12-ethoxy-27-ethyl-N,N,4,19,22,26,32,35-octamethyl-30-[(1S)-1-methylpropyl]-3,6,9,15,18,21,25,28,31,34,42-undecaoxo-2-[[4-(trifluoromethyl)phenyl]methyl]spiro[1,4,7,10,16,19,22,26,29,32,35-undecazatricyclo[34.5.1.0^10,14]dotetracont-38-ene-17,1′-cyclopentane]-23-carboxamide] | 0.066 | A (a compound having 10 or more and less than 20 is denoted as A) | B (a compound having 3 or more and less than 10 is denoted as B) | 20.8
6 | CCO[C@@H]1C[C@H]2C(=O)NC3(CCCCC3)C(=O)N(C)[C@@H](C3CCCC3)C(=O)N(C)[C@H](C(=O)N(C)C)CC(=O)N(C)[C@@H](CC)C(=O)N[C@@H]([C@@H](C)CC)C(=O)N(C)CC(=O)N(C)[C@H]3C/C=C\CCN(C3=O)[C@@H](Cc3ccc(C(F)(F)F)cc3)C(=O)N(C)CC(=O)N[C@@H](CCc3cc(F)c(C(F)(F)F)c(F)c3)C(=O)N2C1 [PP1277] | 0.25 | A (a compound having 10 or more and less than 20 is denoted as A) | A (a compound having 10 or more and less than 20 is denoted as A) | 79.8
